Assay results taken from PubChem BioAssay AID742 (SRMLSC, 2007).
Active and inactive are the calls of the source. No rule for the calls is given here.

Tests used:
[1] = Her2 expression suppression with viability readout – cell-based, AlphaScreen, CellTiter-Glo viability, dose response (AID 742); conditions: human cells, Her2 expression AlphaScreen; CTG viability; at 9.62 µM (top of the series)
[2] = system: human cells, Her2 expression AlphaScreen; CTG viability; assay: as above; conditions: viability, CellTiter-Glo

Structure (SMILES)	Her2 inhibition [1]	EC50 [2] [µM]
CCC(C)NC(=O)c1cnn2c1NC(c1ccc3c(c1)OCO3)CC2C(F)(F)F (stereo not drawn)	-0.33% (inactive)	> 9.62
O=S(=O)(c1ccc(F)cc1)N(CCO)CC(O)Cn1c2ccccc2c2ccccc21 (stereo not drawn)	-33.6% (inactive)	> 9.62
O=C1c2cccc3cccc(c23)C(=O)N1c1nncs1	-25.5% (inactive)	> 9.62
Clc1ccc(-n2nnnc2Sc2ncnc3sccc23)cc1	-1.39% (inactive)	> 9.62
O=C(CCN1CCC(c2ccccc2)C1)c1cccs1 (stereo not drawn)	-8.45% (inactive)	> 9.62
COc1ccc(/C=C/C(O)=C2/C(=O)N(C)C3(C)CC2c2ccccc2O3)cc1 (stereo not drawn)	23.7% (inactive)	> 9.62
C=CCc1cccc2cc(C(=O)NC)c(=O)oc12	3.58% (inactive)	> 9.62
Cn1nnnc1Sc1ncnc2scc(-c3ccccc3)c12	41.9% (inactive)	> 9.62
CCn1c(SCC(=O)C(C)(C)C)nnc1-c1cnccn1	2.82% (inactive)	> 9.62
CC(C)(C)OC(=O)NCCc1nnc(S(=O)(=O)Cc2ccc(Cl)cc2Cl)o1	-15.5% (inactive)	> 9.62
CCN(CC(=O)NC1CCCCCC1)S(=O)(=O)c1ccccc1	-2.97% (inactive)	> 9.62
O=S(=O)(CCN1CCN(C(c2ccccc2)c2ccccc2)CC1)C(F)(F)F	-1.03% (inactive)	> 9.62
Cc1ccc(C)n1-c1ccc(N2CCOCC2)nc1	3.86% (inactive)	> 9.62
CCCc1[nH]nc2c1C(c1ccc(OC)c(Cn3nc(C)c(Br)c3C)c1)C(C#N)=C(N)O2 (stereo not drawn)	-0.44% (inactive)	> 9.62
CCn1c(=N)n(CC(=O)C23CC4CC(CC(C4)C2)C3)c2ccccc21	-15.5% (inactive)	> 9.62
CNCCCC12CCC(c3ccccc31)c1ccccc12	-11.5% (inactive)	> 9.62
C[C@H]1CCC[C@H](O)CCCCCc2cc(O)cc(O)c2C(=O)O1	3.17% (inactive)	> 9.62
O=C(NCC(=O)N(CCc1ccccc1)C(C(=O)NC1CCCC1)c1cccnc1)c1ccco1 (stereo not drawn)	-12.6% (inactive)	> 9.62
CC(C)c1nnc(NC(=O)CCS(=O)(=O)c2nc(-c3cccs3)cc(C(F)(F)F)n2)s1	16.2% (inactive)	> 9.62
Cc1ccc2[nH]cc(C(=O)CN3CCN(c4ccccn4)CC3)c2c1	-23.7% (inactive)	> 9.62

Structure (SMILES)	Her2 inhibition [1]	EC50 [2] [µM]
CC1CN(c2oc(COc3ccc(Cl)cc3Cl)nc2C#N)CC(C)O1 (stereo not drawn)	-17.3% (inactive)	> 9.62
COc1ccccc1-c1cc(C(F)(F)F)nc(S(=O)(=O)CCCC(=O)NC(C)C)n1	5% (inactive)	> 9.62
Cc1cc(NC(=O)CCCS(=O)(=O)c2nc(-c3cccs3)cc(C(F)(F)F)n2)no1	18.9% (inactive)	> 9.62
Cc1nn(C)c(C)c1Sc1ccc(Br)cc1	-6.9% (inactive)	> 9.62
COc1cccc(N2CCN(c3ncnc4c3[nH]c3ccc(F)cc34)CC2C)c1 (stereo not drawn)	-42.1% (inactive)	< 0.024
O=C(NCc1cccs1)c1nc2c(nnn2Cc2ccccc2Cl)c(=O)[nH]1	45.2% (inactive)	> 9.62
Cc1c(NC(=O)c2coc(=O)c(Br)c2)c(=O)n(-c2ccccc2)n1C	7.39% (inactive)	> 9.62
COc1cc(-c2nc(-c3ccc(NC(=O)c4ccc5c(c4)OCO5)cc3)no2)cc(OC)c1OC	-12.5% (inactive)	> 9.62
O=c1cccc(-c2ccccc2)[nH]1	-24.1% (inactive)	> 9.62
CCOC(=O)CC1=C(C(=O)OCC)C(c2ccc(OC)cc2OC)C(C#N)=C(N)O1 (stereo not drawn)	-27.6% (inactive)	> 9.62
CCOC(=O)N1CCN(C(=O)CSCc2nc(-c3ccccc3C)oc2C)CC1	-0.97% (inactive)	> 9.62
O=C(CCn1[nH]c(=O)c2ccccc2c1=O)OC1CCCCC1	-7.62% (inactive)	> 9.62
COC(=O)CSc1cc(SCC(=O)OC)c(C#N)c(SCC(=O)OC)c1	6.74% (inactive)	> 9.62
COc1ccccc1C(CC(=O)Nc1nccs1)c1ccco1 (stereo not drawn)	3.82% (inactive)	> 9.62
N#CC1=C2SCN(c3ccccc3)CN2C(=O)CC1c1cccs1 (stereo not drawn)	-27.6% (inactive)	> 9.62
CC(C)n1c(SCc2ccc(Cl)cc2)nc2c1c(=O)[nH]c(=O)n2C	-14.2% (inactive)	> 9.62
CSCC[C@H](NC(=O)NCc1ccc(F)cc1)C(=O)O	-11.5% (inactive)	> 9.62
CCOC(=O)CC(N)c1ccc2c(c1)OCO2 (stereo not drawn)	-8.02% (inactive)	> 9.62
N#C/C(C(N)=O)=c1/ccc2c(c1)N1C3=C(CCCC3)CC3CCCCC31N=2 (stereo not drawn)	4.75% (inactive)	> 9.62
